Source: patent publication US20250213587A1, “ITK INHIBITORS FOR INCREASING TH1 CELL ACTIVITY” (Corvus Pharmaceuticals, Inc., priority 2022, published 2025)

Columns and labels:
[1] = target: Fyn (Homo sapiens, UniProt P06241); assay: Human kinome profiling at 1.0 μM, Fyn; format: biochemical; conditions: read-out: percent control, Fyn
[2] = target: ZAP-70 (Homo sapiens, UniProt P43403); assay: Human kinome profiling at 1.0 μM, ZAP-70; format: biochemical; conditions: read-out: percent control, ZAP-70
[3] = system: ZAP-70 phosphorylation; assay: ZAP-70 phosphorylation in Jurkat cells; format: cell-based, human; conditions: anti-CD3
Experimental: Jurkat human acute T cell leukemia cell line (ATCC, TIB-152) was cultured in RPMI 1640 medium supplemented with Penicillin-Streptomycin (Gibco) and 10% fetal bovine serum (FBS) at 37° C. and 5% CO2. […] The cell pellet was resuspended in NP40 lysis buffer (Invitrogen) containing protease and phosphatase inhibitors cocktail (Cell Signaling Technology), incubated for 30 minutes on ice, and centrifuged at 15, 000×g for 10 minutes. The lysate supernatant from each condition containing 50 μg of total protein was resolved on an 8% Bis-Tris gel (Invitrogen) under reducing condition and transferred onto a nitrocellulose membrane (Invitrogen) using an iBlot2 gel transfer device. Unless specified otherwise, all reagents described above were purchased from Thermo Fisher Scientific. Membranes were blocked for 1 hour at room temperature and incubated overnight at 4° C. with primary antibodies (1:1000 dilution) in Odyssey blocking buffer (LI-COR) with 0.2% Tween 20. Membranes were washed 4 times (5 min each) in Tris-buffered saline, 0.10% Tween 20 and incubated with IRDye 800CW Anti-Rabbit IgG and IRDye 700CW Anti-Mouse IgG (LI-COR) secondary antibodies (1:20,000 dilution) for 1 hour at room temperature. After washes, membranes were imaged in the LI-COR Odyssey® Fc Imaging System. […]

[4] = system: IL-4 production by CD4+ T cells; assay: T cell activation, IL-4+CD4+ T cells; format: cell-based, human
Experimental: (§1) Fresh PBMCs from healthy human donors were centrifuged and reconstituted at 0.312×10^6 cells/mL in RPMI 1640 medium+10% heat-inactivated FBS+1× penicillin streptomycin and 100,000 cells/well were distributed into 24 well tissue culture plate. Cells were incubated at 37° C. for 1 hour, followed by the addition of CPI 596 or vehicle. The cells were then incubated at 37° C. for 1 hour, followed by the addition of […] anti CD3 and anti CD28 (both eBioscience). Cells were incubated at 37° C. for 6 days, with supplemental media supplied on day 3. On Day 6, the cells were transferred to a 96 deep well plate, washed, and treated with 50 nM phorbol 12-myristate 13-acetate, 1 μg/mL ionomycin, and 1 μg/mL brefeldin A, and then incubated at 37° C. for 4 hours. The cells were then fixed and permeabilized using eBioscience Fox3/transcription factor staining buffer. Cells were treated with Fc block (BioLegend) and then stained with CD3 BV605, CD45RA PerCP-Cy5.5, Tbet PE, IFNγ AF488, IL-4 APC (BioLegend), CD4 PE-Cy7, cPARP AF700 (BD Biosciences), and CD8 Krome Orange (Beckman Coulter). For flow cytometry, 300,000 cells were acquired on Cytoflex (Beckman Coulter). Data were analyzed using Flowjo software. The percentage of CD4^+ T cells that were positive for IFNγ and IL 4 were reported.

[5] = system: IFNγ production by CD4+ T cells; assay: T cell activation, IFNγ+CD4+ T cells; format: cell-based, human
Experimental: as §1

[6] = target: T1, RLK (Homo sapiens, UniProt P42681); assay: Human kinome profiling at 1.0 μM, RLK; format: biochemical; conditions: read-out: percent control, RLK
T1 construct: purchased Invitrogen PV5860

[7] = system: bleomycin-induced pulmonary fibrosis; assay: Bleomycin-induced mouse pulmonary fibrosis model; format: in vivo; conditions: 10 and 30 mg/kg QD, day 7-21
[8] = system: ERK phosphorylation; assay: pERK flow cytometry after CD3/28 crosslinking; format: cell-based; conditions: Homo sapiens, mean of three donors
Experimental: PBMCs were pelleted (400×g at 4° C. for 5 minutes) and resuspended in RPMI+10% heat-inactivated fetal bovine serum (FBS) at 14.3×10^6 cells/mL; 70 μL (1×10^6 cells) were plated in a 96 well U bottom plate and incubated at 37° C. for 1 hour. […] CD3-biotin and CD28-biotin were prepared together at 10 μg/mL each, which is 10× the final concentration; 10 μL antibodies were added to the cells and incubated at 37° C. for 15 minutes. Avidin was prepared at 500 μg/mL, which is 10× the final concentration; 10 μL avidin were added to the cells and incubated at 37° C. for 5 minutes to induce TCR crosslinking. A total volume of 100 μL cells were transferred to 200 μL warm 2.4% paraformaldehyde (PFA) in deep well blocks. Pipetting was performed using a liquidator 96 to add reagents to the entire plate with uniform timing. Cells were fixed with PFA at 37° C. for 10 minutes. Cells were pelleted (1000× g for 5 minutes), and the plate was aspirated leaving approximately 100 μL residual volume. The plate was then vigorously vortexed for 10 seconds, and 1 mL −20° C. methanol was added to each well. Cells were stored at […] for approximately 1 month. […] Inhibition was measured by construction of a concentration response curve of the Log base 10 transformed values of the molar concentration of inhibitor. […]

T1 sequence (P42681 whole entry): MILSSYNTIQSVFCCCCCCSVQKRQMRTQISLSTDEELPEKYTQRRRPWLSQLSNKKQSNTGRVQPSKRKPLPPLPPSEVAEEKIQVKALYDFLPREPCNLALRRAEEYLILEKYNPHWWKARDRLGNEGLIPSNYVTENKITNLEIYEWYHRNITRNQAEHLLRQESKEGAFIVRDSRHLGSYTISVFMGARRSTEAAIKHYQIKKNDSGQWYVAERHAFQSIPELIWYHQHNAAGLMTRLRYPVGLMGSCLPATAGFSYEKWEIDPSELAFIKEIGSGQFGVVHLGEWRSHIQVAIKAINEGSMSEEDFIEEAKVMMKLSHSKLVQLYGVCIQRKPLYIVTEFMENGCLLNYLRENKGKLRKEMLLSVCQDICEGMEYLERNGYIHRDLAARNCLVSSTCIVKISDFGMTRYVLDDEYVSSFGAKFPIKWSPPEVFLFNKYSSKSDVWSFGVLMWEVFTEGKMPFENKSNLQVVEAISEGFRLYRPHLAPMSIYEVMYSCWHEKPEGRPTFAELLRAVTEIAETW
ZAP-70, sequence (P43403 whole entry): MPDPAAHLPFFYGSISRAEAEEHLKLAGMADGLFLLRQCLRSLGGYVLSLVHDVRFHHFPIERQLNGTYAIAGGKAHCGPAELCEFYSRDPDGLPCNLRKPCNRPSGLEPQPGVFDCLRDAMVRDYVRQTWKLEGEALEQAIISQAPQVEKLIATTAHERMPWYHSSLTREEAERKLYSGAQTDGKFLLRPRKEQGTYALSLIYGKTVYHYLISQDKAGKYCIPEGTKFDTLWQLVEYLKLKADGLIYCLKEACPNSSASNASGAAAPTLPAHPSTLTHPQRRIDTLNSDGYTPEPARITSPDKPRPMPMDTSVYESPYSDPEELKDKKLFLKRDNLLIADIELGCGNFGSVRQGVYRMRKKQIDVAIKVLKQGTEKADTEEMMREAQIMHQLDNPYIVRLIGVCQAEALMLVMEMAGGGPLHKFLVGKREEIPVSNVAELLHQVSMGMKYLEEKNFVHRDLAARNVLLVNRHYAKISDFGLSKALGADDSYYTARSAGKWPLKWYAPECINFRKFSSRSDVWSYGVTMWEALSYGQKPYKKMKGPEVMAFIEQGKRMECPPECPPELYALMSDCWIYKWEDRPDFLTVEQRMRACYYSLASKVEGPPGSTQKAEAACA
Fyn, sequence (P06241 whole entry): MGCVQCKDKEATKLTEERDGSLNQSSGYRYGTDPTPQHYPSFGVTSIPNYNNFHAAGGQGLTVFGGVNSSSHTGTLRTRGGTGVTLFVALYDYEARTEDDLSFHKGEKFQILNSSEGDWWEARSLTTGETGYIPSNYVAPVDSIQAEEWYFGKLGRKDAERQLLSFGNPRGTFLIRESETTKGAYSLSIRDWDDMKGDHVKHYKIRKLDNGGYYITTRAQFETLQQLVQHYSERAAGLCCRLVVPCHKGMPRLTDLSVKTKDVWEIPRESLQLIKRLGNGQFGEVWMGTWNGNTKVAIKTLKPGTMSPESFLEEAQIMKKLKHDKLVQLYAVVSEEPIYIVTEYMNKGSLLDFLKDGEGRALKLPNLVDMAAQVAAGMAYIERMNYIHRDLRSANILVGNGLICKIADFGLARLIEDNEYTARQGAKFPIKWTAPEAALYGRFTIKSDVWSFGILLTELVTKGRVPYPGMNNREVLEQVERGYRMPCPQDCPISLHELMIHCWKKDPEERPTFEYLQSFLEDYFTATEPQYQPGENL

remaining activity at 1 µM [1]: 99%
remaining activity at 1 µM [2]: 59%
remaining activity at 1 µM [6]: 70%
IC50 [8]: 39 nM
Compound: C=CC(=O)N1CCCN(C(=O)c2cc(Sc3cnc(NC(=O)C4CC4)s3)c(C)cc2OC)C[C@H]1C [CPI-818]
phosphorylation of ZAP-70 [3]: but not ZAP-70
IL-4 production ([4]; 10 μM): complete inhibition
inhibition at 1 µM ([4]; Homo sapiens, CD4+ T, 1 μM, average, read-out: inhibition of percentage of CD4+ T cells that produced IL-4): 64%
effect on IFNγ production ([5]; 1 μM, average across samples): 19%
IFNγ-positivity ([5]; 10 μM): robustly inhibited
effect on percentage of IFNγ+CD4+ T cells ([5]; up to 1 μM, average): < 20%
BALF leukocytes [7]: reduced
lung weight [7]: reduced
